# Assay results published in patent publication US20230085945A1, “ORTHOGONAL SAFETY SWITCHES TO ELIMINATE GENETICALLY ENGINEERED CELLS” (The Board of Trustees of the Leland Stanford Junior …, priority 2020, published 2023).
# What was measured:
# [1] = test system: ACTB^OiCasp9-mPlum;NANOG^iCasp9-YFP hPSCs and differentiated liver, bone and neural progenitors; experiment: Killing of ACTB^OiCasp9-mPlum;NANOG^iCasp9-YFP hPSCs and differentiated derivatives by AP21 or AP20 (alamar blue); type: cell-based, human; settings: dual-transgenic line; 1 nM, 24 hours
# Description: FIG. 6: Rationale, design and implementation of the ACTB^OiCasP9-mPlum safety switch. A) Intended application of the dual ACTB^OiCasp9-mPlum;NANOG^iCasp9-YFP safeguard. B) Cas9 RNP/AAV6-based knock-in strategy for ACTB^iCasp9-mPlum targeting, which was performed in the NANOG^iCasp9-YFP hESC line. C) 5×10^5 ACTB^OiCasp9-mPlum; NANOG^iCasp9-YFP hESCs were treated with control media or 1-1000 nM AP21967 for 24 hours. Cell viability was analyzed using alamar blue. D) ACTB^OiCasp9-mPlum;NANOG^iCasp9-YFP and ACTB^TK-mPlum; NANOG^iCasp9-YFP hESCs (negative control), in addition to their respective differentiated derivatives, were treated for 24 hours with 1 nM of AP21967. E) 5×10^5 ACTB^OiCasp9-mPlum; NANOG^iCasp9-YFP hESCs, and their respective differentiated derivatives, were treated with control media, 1 nM of AP21967 or and 1 nM of AP20187 for 24 hours. Surviving cells were analyzed by alamar blue. F) 10^6 ACTB^OiCasp9-mPlum;NANOG^iCasp9-YFP hESCs engineered to express CAG-AkaLuciferase were treated with control media or 1 nM AP20187 for 24 hours, and then subcutaneously transplanted into the right and left dorsal flanks of NOD-SCID Il2rg^−/− mice (10^6 cells per flank). 4 weeks post-transplant, teratomas formed and AP21967 was intraperitoneally administered once at 10 mg/kg. […] Total flux (photons/sec) was measured for each animal and was averaged.
# [2] = test system: ACTB^TK-mPlum;NANOG^iCasp9-YFP hESCs (iCaspase9-expressing cells); experiment: AP21967 treatment of iCaspase9-expressing cells (cross-reactivity check); type: cell-based, human; settings: AP21967 24 hours
# [3] = test system: H9 undifferentiated hPSCs and hPSC-derived neural, liver, and sclerotome cells; experiment: YM155 treatment, cell viability by alamar blue; type: cell-based, human; settings: YM155 10 nM or 2 μM, 24 hours
# Excerpt: FIG. 7: Marker expression during hPSC differentiation and evaluation of past safety switches (related to FIG. 2). A) i) Flow cytometry analysis of widely-used pluripotency surface markers SSEA-3, SSEA-4, TRA-1-60, TRA-1-81 and PODXL1^20,21 before and during differentiation into endodermal, mesodermal and ectodermal lineages for 1-6 days. Positive gates were set based on unstained negative controls. ii) Gene expression analysis of previously reported safety system genes CDK1, TERT, SCD1, PODXL1 and SURVIVIN before and during differentiation into endodermal, mesodermal and ectodermal lineages. Expression of lineage markers is depicted normalized to the reference gene YWHAZ (i.e., YWHAZ=1.0). B) Widely-used pluripotency surface markers such as SSEA-3, SSEA-4, TRA-1-60, TRA-1-81 and PODXL1^20,21 were not exclusive to pluripotent cells. […] Unstained hESCs (top row; grey shading) were used as a negative control to set positive gates (dotted vertical lines). […] D) H9 undifferentiated hPSCs and hPSC-derived neural, liver, and sclerotome cells (generated after 6 days of differentiation) were treated for 24 hours with YM155 (either 10 nM or 2 μM), a small molecule SURVIVIN inhibitor, and cell viability was assessed using alamar blue.
# [4] = test system: teratomas from ACTB^HSV-TK-mPlum;NANOG^iCasp9-YFP hPSCs; experiment: Elimination of teratomas using ganciclovir in vivo (bioluminescent imaging); set-up: species or system NSG mice; settings: week 7 post-transplantation, 4 weeks after initiating ganciclovir 50 mg/kg daily
# Description: FIG. 5: Implementation of the ACTB^TK-mPlum safety switch. A) NANOG^iCasp9-YFP;ACTB^TK-mPlum hESCs were treated with ganciclovir (or left untreated) for 24 hours, and subsequently ganciclovir was withdrawn and hESCs were cultured for 1 week in mTeSR1 to detect any surviving cells and to allow them to regrow. […] N.D.=not detected. B) NANOG^iCasp9-YFP;ACTB^TK-mPlum hESCs were differentiated into day 6 liver, sclerotome and neural progenitors and treated with ganciclovir at the indicated doses for the last 24 hours of differentiation. Cell survival was analyzed by counting at day 6 of differentiation. C) 10^6 NANOG^iCasp9-YFP; ACTB^TK-mPlum hESCs engineered to express CAG-AkaLuciferase were treated with control media or 1 nM AP20187 for 24 hours, and then subcutaneously transplanted into the right and left dorsal flanks of NOD-SCID Il2rg^−/− mice (10^6 cells per flank). […] Total flux (photons/sec) was measured for each animal and were averaged.
# FIG. 10: Supporting data for ACTB^TK-mPlum safety switch (related to FIGS. 4-5). […] Total flux (photons/sec) was measured for each animal.
# Bioluminescent imaging. […] Subsequent image analysis was done in Aura with regions of interest (ROIs) drawn for each mouse to calculate Total Flux (photons/sec) in order to quantify teratoma growth over time. […]
# [5] = test system: ACTB^HSV-TK-mPlum;NANOG^iCasp9-YFP hPSCs; experiment: Quantification of cell death after ganciclovir treatment of hPSCs; type: cell-based, human
# Description: FIG. 5: Implementation of the ACTB^TK-mPlum safety switch. A) NANOG^iCasp9-YFP;ACTB^TK-mPlum hESCs were treated with ganciclovir (or left untreated) for 24 hours, and subsequently ganciclovir was withdrawn and hESCs were cultured for 1 week in mTeSR1 to detect any surviving cells and to allow them to regrow. […] N.D.=not detected. B) NANOG^iCasp9-YFP;ACTB^TK-mPlum hESCs were differentiated into day 6 liver, sclerotome and neural progenitors and treated with ganciclovir at the indicated doses for the last 24 hours of differentiation. Cell survival was analyzed by counting at day 6 of differentiation. C) 10^6 NANOG^iCasp9-YFP; ACTB^TK-mPlum hESCs engineered to express CAG-AkaLuciferase were treated with control media or 1 nM AP20187 for 24 hours, and then subcutaneously transplanted into the right and left dorsal flanks of NOD-SCID Il2rg^−/− mice (10^6 cells per flank). After 3 weeks post-transplant, teratomas formed in vivo and ganciclovir was administered daily at 50 mg/kg until week 7 post-transplant. Bioluminescent imaging of mice was conducted weekly for 7 weeks. Total flux (photons/sec) was measured for each animal and were averaged.
# Quantification of cell death after ganciclovir treatment. […] At the end of 6 days of culture in mTeSR1 alone, the number of surviving live cells was counted.
# [6] = test system: ACTB^HSV-TK-mPlum;NANOG^iCasp9-YFP hPSC-derived liver, bone and forebrain progenitors; experiment: Ganciclovir treatment of differentiated progenitors, cell counting at day 6; type: cell-based, human; settings: ganciclovir for last 24 hours of differentiation
compound,measurement,setting,value
CO[C@H]1[C@@H](O)[C@H](C)C[C@H](C)/C=C/C=C/C=C(\C)[C@@H](c2c[nH]c3c(C)cccc23)C[C@@H]2CC[C@@H](C)[C@@](O)(O2)C(=O)C(=O)N2CCCC[C@H]2C(=O)O[C@H]([C@H](C)C[C@@H]2CC[C@@H](O)[C@H](OC)C2)C[C@H](O)[C@H](C)/C=C(\C)[C@H]1O [AP21],killing of undifferentiated and differentiated cells,[1],"kill both undifferentiated hPSCs and differentiated liver, bone and neural progenitors"
same,killing of iCaspase9-expressing cells,[2],does not kill iCaspase9-expressing cells
COCCn1c2c([n+](Cc3cnccn3)c1C)C(=O)c1ccccc1C2=O [YM155],cell killing (viability),[3],killed both undifferentiated and differentiated hPSCs
Nc1nc(O)c2ncn(COC(CO)CO)c2n1 [ganciclovir],detectable teratomas by bioluminescent imaging,[4],no ganciclovir-treated mice had detectable teratomas
same,in vitro proliferation of hPSCs,"[5]; ganciclovir 24 hours, then 1 week in mTeSR1",broadly blocked the in vitro proliferation
same,cell death in hPSCs,"[5]; three days post-GCV treatment (0.5-2 μM, 24 hours)",cell death was observed
same,"in vitro proliferation of derivative liver, bone and forebrain progenitors",[6],broadly blocked the in vitro proliferation
